What follows are compounds tested against CYP3A4(BQ) (Homo sapiens, UniProt P08684) (assay: CYP3A4(BQ) inhibition). Conditions: CYP3A4, substrate BQ; read-out: Cyp IC50 3A4(BQ).
Assay type: in vitro ADME
Method in brief: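 Inhibition of human CYP3A4 (BQ substrate) was measured by fluorescence, since blocking metabolism of a known substrate lowers the fluorescent product signal. Compounds dissolved in DMSO at 100 mM were diluted into acetonitrile and then into NADPH regeneration cofactor mix, serially diluted 1:1 across 10 points, and preincubated in 384 well plates for 10 minutes at 37° C.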

Chain of CYP3A4(BQ) (P08684 whole entry): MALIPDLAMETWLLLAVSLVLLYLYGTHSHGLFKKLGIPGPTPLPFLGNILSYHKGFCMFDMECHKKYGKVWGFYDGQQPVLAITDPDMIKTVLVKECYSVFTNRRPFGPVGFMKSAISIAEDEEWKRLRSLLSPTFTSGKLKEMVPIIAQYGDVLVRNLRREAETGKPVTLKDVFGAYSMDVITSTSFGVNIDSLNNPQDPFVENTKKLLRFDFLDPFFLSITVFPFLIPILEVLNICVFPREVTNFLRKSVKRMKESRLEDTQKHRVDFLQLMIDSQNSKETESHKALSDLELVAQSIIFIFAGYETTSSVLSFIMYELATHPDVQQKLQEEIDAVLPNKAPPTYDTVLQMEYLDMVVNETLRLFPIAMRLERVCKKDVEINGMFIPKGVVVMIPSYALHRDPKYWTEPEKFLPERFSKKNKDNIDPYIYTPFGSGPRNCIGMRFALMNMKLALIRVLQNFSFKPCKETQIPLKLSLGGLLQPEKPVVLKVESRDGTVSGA

Row | SMILES | IC50 [µM]
1 | Clc1cnc2[nH]cc(Cc3cnc(NC4CCCCC4)nc3)c2c1 [Compound P-3001, [5-(5-chloro-1H-pyrrolo[2,3-b]pyridin-3-ylmethyl)-pyrimidin-2-yl]-cyclohexyl-amine] | > 10
2 | Cc1cnc2[nH]cc(Cc3cnc(Nc4ccc(C(F)(F)F)nc4)nc3)c2c1 [Compound P-3018, [5-(5-Methyl-1H-pyrrolo[2,3-b]pyridin-3-ylmethyl)-pyrimidin-2-yl]-(6-trifluoromethyl-pyridin-3-yl)-amine] | > 10
3 | Cc1ccc(Nc2ccc(C(=O)c3c[nH]c4ncc(Cl)cc34)c(F)n2)cn1 [Compound P-3044, (5-Chloro-1H-pyrrolo[2,3-b]pyridin-3-yl)-[2-fluoro-6-(6-methyl-pyridin-3-ylamino)-pyridin-3-yl]-methanone] | > 10
4 | COc1ccc(Nc2ccc(C(=O)c3c[nH]c4ncc(C)cc34)c(F)n2)cn1 [Compound P-3040, [2-Fluoro-6-(6-methoxy-pyridin-3-ylamino)-pyridin-3-yl]-(5-methyl-1H-pyrrolo[2,3-b]pyridin-3-yl)-methanone] | > 10
5 | CCOc1ccc(Nc2ccc(C(=O)c3c[nH]c4ncnc(OC)c34)c(F)n2)cn1 [Compound P-4024, [6-(6-Ethoxy-pyridin-3-ylamino)-2-fluoro-pyridin-3-yl]-(4-methoxy-7H-pyrrolo[2,3-d]pyrimidin-5-yl)-methanone] | > 10
6 | Cc1cnc2[nH]cc(C(=O)c3ccc(Nc4ccc(C)nc4)nc3F)c2c1 [Compound P-3043, [2-Fluoro-6-(6-methyl-pyridin-3-ylamino)-pyridin-3-yl]-(5-methyl-1H-pyrrolo[2,3-b]pyridin-3-yl)-methanone] | > 10
7 | Fc1nc(NC2CCC(F)(F)CC2)ccc1Cc1c[nH]c2ncnc(NCC(F)(F)F)c12 [Compound P-4128, 5-[[6-[(4,4-difluorocyclohexyl)amino]-2-fluoro-3-pyridyl]methyl]-N-(2,2,2-trifluoroethyl)-7H-pyrrolo[2,3-d]pyrimidin-4-amine] | > 10
8 | Fc1nc(NC2CCC(F)(F)CC2)ccc1Cc1c[nH]c2ncnc(NC3CC3)c12 [Compound P-4129, N-cyclopropyl-5-[[6-[(4,4-difluorocyclohexyl)amino]-2-fluoro-3-pyridyl]methyl]-7H-pyrrolo[2,3-d]pyrimidin-4-amine] | < 5
9 | Cc1cnc2[nH]cc(C(=O)c3ccc(Nc4ccc(C5CC5)nc4)nc3F)c2c1 [Compound P-3051, [6-(6-Cyclopropyl-pyridin-3-ylamino)-2-fluoro-pyridin-3-yl]-(5-methyl-1H-pyrrolo[2,3-b]pyridin-3-yl)-methanone] | > 10
10 | CCOc1ncnc2[nH]cc(C(=O)c3ccc(Nc4ccc(OC)nc4)nc3F)c12 [Compound P-4025, (4-Ethoxy-7H-pyrrolo[2,3-d]pyrimidin-5-yl)-[2-fluoro-6-(6-methoxy-pyridin-3-ylamino)-pyridin-3-yl]-methanone] | > 10
11 | CCc1ccc(Nc2ccc(C(=O)c3c[nH]c4ncc(C)cc34)c(F)n2)cn1 [Compound P-3049, [6-(6-Ethyl-pyridin-3-ylamino)-2-fluoro-pyridin-3-yl]-(5-methyl-1H-pyrrolo[2,3-b]pyridin-3-yl)-methanone] | > 10
12 | O=C(c1ccc(Nc2ccc(C3CC3)nc2)nc1F)c1c[nH]c2ncccc12 [Compound P-3052, [6-(6-Cyclopropyl-pyridin-3-ylamino)-2-fluoro-pyridin-3-yl]-(1H-pyrrolo[2,3-b]pyridin-3-yl)-methanone] | > 10

Now from value to compound:

Row | IC50 [µM] | SMILES
13 | > 10 | COc1ccc(Nc2ccc(C(=O)c3c[nH]c4ncnc(C5CC5)c34)c(F)n2)cn1 [Compound P-4022, (4-cyclopropyl-7H-pyrrolo[2,3-d]pyrimidin-5-yl)-[2-fluoro-6-(6-methoxy-pyridin-3-ylamino)-pyridin-3-yl]-methanone]
14 | > 10 | Cc1ccc(Nc2ccc(C(=O)c3c[nH]c4ncnc(C5CC5)c34)c(F)n2)cn1 [Compound P-4031, (4-Cyclopropyl-7H-pyrrolo[2,3-d]pyrimidin-5-yl)-[2-fluoro-6-(6-methyl-pyridin-3-ylamino)-pyridin-3-yl]-methanone]
15 | > 10 | Cc1cnc2[nH]cc(Cc3ccc(Nc4ccc(C5CC5)nc4)nc3F)c2c1 [Compound P-3050, (6-Cyclopropyl-pyridin-3-yl)-[6-fluoro-5-(5-methyl-1H-pyrrolo[2,3-b]pyridin-3-ylmethyl)-pyridin-2-yl]-amine]
16 | > 10 | CCc1ccc(Nc2ccc(C(=O)c3c[nH]c4ncnc(C5CC5)c34)c(F)n2)cn1 [Compound P-4029, (4-Cyclopropyl-7H-pyrrolo[2,3-d]pyrimidin-5-yl)-[6-(6-ethyl-pyridin-3-ylamino)-2-fluoro-pyridin-3-yl]-methanone]
17 | 5 to 10 | CCn1cc(Nc2ccc(Cc3c[nH]c4ncnc(C5CC5)c34)c(F)n2)cn1 [Compound P-4036, [5-(4-Cyclopropyl-7H-pyrrolo[2,3-d]pyrimidin-5-ylmethyl)-6-fluoro-pyridin-2-yl]-(1-ethyl-1H-pyrazol-4-yl)-amine]
18 | 5 to 10 | CCn1cc(Nc2ccc(C(=O)c3c[nH]c4ncnc(C5CC5)c34)c(F)n2)cn1 [Compound P-4037, (4-Cyclopropyl-7H-pyrrolo[2,3-d]pyrimidin-5-yl)-[6-(1-ethyl-1H-pyrazol-4-ylamino)-2-fluoro-pyridin-3-yl]-methanone]
19 | > 10 | Fc1nc(Nc2ccc(C3CC3)nc2)ccc1Cc1c[nH]c2ncnc(NCC(F)(F)F)c12 [Compound P-4130, 5-[[6-[(6-cyclopropyl-3-pyridyl)amino]-2-fluoro-3-pyridyl]methyl]-N-(2,2,2-trifluoroethyl)-7H-pyrrolo[2,3-d]pyrimidin-4-amine]
20 | > 10 | CCc1ccc(Nc2ccc(Cc3c[nH]c4ncc(C)cc34)c(F)n2)cn1 [Compound P-3048, (6-Ethyl-pyridin-3-yl)-[6-fluoro-5-(5-methyl-1H-pyrrolo[2,3-b]pyridin-3-ylmethyl)-pyridin-2-yl]-amine]
21 | > 10 | Fc1nc(Nc2ccc(C3CC3)nc2)ccc1Cc1c[nH]c2ncccc12 [Compound P-3053, (6-Cyclopropyl-pyridin-3-yl)-[6-fluoro-5-(1H-pyrrolo[2,3-b]pyridin-3-ylmethyl)-pyridin-2-yl]-amine]
22 | > 10 | COCCOc1ncnc2[nH]cc(Cc3ccc(Nc4ccc(OC)nc4)nc3F)c12 [Compound P-4019, {6-Fluoro-5-[4-(2-methoxy-ethoxy)-7H-pyrrolo[2,3-d]pyrimidin-5-ylmethyl]-pyridin-2-yl}-(6-methoxy-pyridin-3-yl)-amine]
23 | > 10 | CCOc1ncnc2[nH]cc(Cc3ccc(Nc4ccc(C)nc4)nc3F)c12 [Compound P-4017, [5-(4-Ethoxy-7H-pyrrolo[2,3-d]pyrimidin-5-ylmethyl)-6-fluoro-pyridin-2-yl]-(6-methyl-pyridin-3-yl)-amine]
24 | > 10 | CCOc1ncnc2[nH]cc(Cc3ccc(Nc4ccc(OC)nc4)nc3F)c12 [Compound P-4018, [5-(4-Ethoxy-7H-pyrrolo[2,3-d]pyrimidin-5-ylmethyl)-6-fluoro-pyridin-2-yl]-(6-methoxy-pyridin-3-yl)-amine]
25 | > 10 | COc1ccc(Nc2ccc(Cc3c[nH]c4ncnc(C)c34)c(F)n2)cn1 [Compound P-4002, [6-Fluoro-5-(4-methyl-7H-pyrrolo[2,3-d]pyrimidin-5-ylmethyl)-pyridin-2-yl]-(6-methoxy-pyridin-3-yl)-amine]
26 | > 10 | CCc1ccc(Nc2ccc(Cc3c[nH]c4ncnc(C5CC5)c34)c(F)n2)cn1 [Compound P-4028, [5-(4-Cyclopropyl-7H-pyrrolo[2,3-d]pyrimidin-5-ylmethyl)-6-fluoro-pyridin-2-yl]-(6-ethyl-pyridin-3-yl)-amine]
27 | > 10 | COc1ncnc2[nH]cc(Cc3ccc(Nc4ccc(Cl)nc4)nc3F)c12 [Compound P-4003, (6-Chloro-pyridin-3-yl)-[6-fluoro-5-(4-methoxy-7H-pyrrolo[2,3-d]pyrimidin-5-ylmethyl)-pyridin-2-yl]-amine]
28 | > 10 | Cc1ccc(Nc2ccc(Cc3c[nH]c4ncnc(C5CC5)c34)c(F)n2)cn1 [Compound P-4030, [5-(4-Cyclopropyl-7H-pyrrolo[2,3-d]pyrimidin-5-ylmethyl)-6-fluoro-pyridin-2-yl]-(6-methyl-pyridin-3-yl)-amine]

Source: US8901118B2, “Compounds and methods for kinase modulation, and indications therefor” (Plexxikon Inc., priority 2010, dated 2014)
